What was measured:
BTK [1] = target: T1, BTK (Homo sapiens, UniProt Q06187); assay: In vitro BTK inhibition (no preincubation); type: biochemical
BTK [2] = target: T1, BTK; assay: BTK irreversible inhibition, enzyme kinetic analysis; type: biochemical; conditions: 0.1 nM BTK, 500 μM ATP
Method: One of ordinary skill in the art will recognize that this is consistent with the irreversible inhibition of BTK by compound I-A1.
One of ordinary skill in the art will recognize that this is consistent with the irreversible inhibition of BTK by compound I-A6.
One of ordinary skill in the art will recognize that this is consistent with the irreversible inhibition of BTK by compound 3A-2.
The shift of IC50 to a lower value after pre-incubation of the enzyme indicates to one of ordinary skill in the art that a significant portion of the enzyme was inhibited irreversibly during the incubation period.

[3] = target: T2, His-tagged BTK kinase domain (Homo sapiens, UniProt Q06187); assay: Mass spectral analysis of tryptic digest of BTK kinase domain; type: binding; conditions: 10 μM BTK KD, 10 μM compound, 45 min; for C481 covalent modification: tryptic peptide 467-487
T2 construct: Intact His-tagged BTK kinase domain (SOURCE)(10 μM) was incubated
T2 sequence (Q06187 402-655 limits assumed): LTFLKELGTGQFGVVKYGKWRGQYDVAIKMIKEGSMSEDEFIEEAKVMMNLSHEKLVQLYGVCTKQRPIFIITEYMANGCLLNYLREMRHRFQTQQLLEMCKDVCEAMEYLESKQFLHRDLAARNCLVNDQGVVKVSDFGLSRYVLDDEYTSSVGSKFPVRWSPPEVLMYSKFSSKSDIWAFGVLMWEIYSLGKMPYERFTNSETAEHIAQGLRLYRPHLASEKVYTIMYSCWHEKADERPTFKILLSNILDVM
Method: A protein kinase that is inhibited by compound and/or pharmaceutically acceptable salt of the present disclosure may be subjected to mass spectral analysis to assess the formation of permanent, irreversible covalent adducts. […] Such methods identify permanent, irreversible covalent protein adducts by observing a mass peak that corresponds to the mass of a control sample plus the mass of an irreversible adduct.
After the incubation time, the reactions were quenched by acetone precipitation and the pellet was re-dissolved in 8 M Urea. […] The BTK protein band was then excised and subjected to an in-gel trypsin digest by reducing the protein (5 mM DTT), alkylating the thiols with iodoacetamide (15 mM), and then incubating the protein gel band with trypsin in a 37 C water bath (4 hours). The tryptic digestion was then quenched by the addition of trifluoroacetic acid, and peptides were removed from the gel band by sonicating with increasing amounts of acetonitrile (0%, 30%, & 60%). Peptides were then purified using C18 ziptips, spotted on the MALDI target plate with α-cyano-4-hydroxycinnamic acid as the desorption matrix (10 mg/mL in 0.10% TFA:Acetonitrile 50:50), and analyzed in reflectron mode.

tubulin = assay: Tubulin polymerization assay; type: biochemical; conditions: for % Inhibition: Vmax normalized to tubulin only control; for % D.O.P.: degree of polymerization relative to tubulin control
Method: A96-well half-area clear flat-bottom microplate (Corning® #3697) was pre-heated in a plate reader (Cytation 3, BioTek) at 37° C. for 15 minutes prior to the start of each assay. Tubulin polymerization buffer (80 mM PIPES pH 6.9, 2 mM MgCl2, 0.5 mM EGTA, 15% glycerol, 1 mM GTP) was prepared from stock solutions and placed on ice. Inhibitors were prepared to M concentrations in buffer (80 mM PIPES pH 6.9, 2 mM MgCl2, 0.5 mM EGTA, 5% DMSO) from DMSO stock solutions. After the assay plate was pre-warmed, 10 μL of inhibitor or buffer control was added to selected wells. Every assay contained a tubulin only negative control for normalization of data, and a batabulin positive control. The assay plate was incubated at 37° C. for 3 minutes. During this time, a frozen aliquot of tubulin (10 mg/mL) in buffer (80 mM PIPES pH 6.9, 2 mM MgCl2, 0.5 mM EGTA) was defrosted by placing in a room temperature water bath. Once thawed, 200 μL of tubulin was mixed with 420 μL ice cold tubulin polymerization buffer (3 mg/mL tubulin in 80 mM PIPES, pH 6.9, 2 mM MgCl2, 0.5 mM EGTA, 1 mM GTP, 10.2% glycerol). To a 96-well plate on ice, aliquots of 100 μL tubulin was added to each well. From this plate, 90 μL of tubulin was immediately pipetted into all sample wells of the warmed assay plate using a multi-channel pipette. The assay plate was immediately put in the reader at 37° C. and shook for 5 s with orbital shaking at medium speed. The reader recorded the absorbance at 340 nm every 15 s for 30 min.
The resulting absorbance curves were normalized by subtracting each data point by the absorbance at time 0.
The largest change in absorbance over the assay time course was also recorded and related to the tubulin control as the % degree of polymerization (% D.O.P.).

MV4-11 cells = assay: CellTiter-Blue cell viability, MV-4-11; type: cell-based; conditions: Homo sapiens, 72 hrs exposure
Method: (§1) Anti-cancer efficacy of exemplary compounds of this application was assessed in vitro in different cancer cell lines. Cell viability was examined following treatment at various concentration of inhibitor (0.097656-50 μM) using a cell Titer-Blue cell viability assay. 1×10^4 cells (NHF, MV4-11, K562 and MOLM-13 cells)/well were plated in 96-well assay plates in culture medium. All cells were grown in DMEM, IMDM and RPMI-1640 supplemented with 10% FBS. After 24 hrs, test compounds and vehicle controls were added to appropriate wells so the final volume was 100 μl in each well. The cells were cultured for the desired test exposure period (72 hrs) at 37° C. and 5% CO2. The assay plates were removed from 37° C. incubator and 20 μl/well of CellTiter-Blue® Reagent was added. The plates were incubated using standard cell culture conditions for 1-4 hours and the plates were shaken for 10 seconds and record fluorescence at 560/590 nm.

K562 cells = assay: CellTiter-Blue cell viability, K562; type: cell-based; conditions: Homo sapiens, 72 hrs exposure
Method: as §1

MOLM-13 cells = assay: CellTiter-Blue cell viability, MOLM-13; type: cell-based; conditions: Homo sapiens, 72 hrs exposure
Method: as §1

T1 sequence (Q06187 whole entry, species assumed): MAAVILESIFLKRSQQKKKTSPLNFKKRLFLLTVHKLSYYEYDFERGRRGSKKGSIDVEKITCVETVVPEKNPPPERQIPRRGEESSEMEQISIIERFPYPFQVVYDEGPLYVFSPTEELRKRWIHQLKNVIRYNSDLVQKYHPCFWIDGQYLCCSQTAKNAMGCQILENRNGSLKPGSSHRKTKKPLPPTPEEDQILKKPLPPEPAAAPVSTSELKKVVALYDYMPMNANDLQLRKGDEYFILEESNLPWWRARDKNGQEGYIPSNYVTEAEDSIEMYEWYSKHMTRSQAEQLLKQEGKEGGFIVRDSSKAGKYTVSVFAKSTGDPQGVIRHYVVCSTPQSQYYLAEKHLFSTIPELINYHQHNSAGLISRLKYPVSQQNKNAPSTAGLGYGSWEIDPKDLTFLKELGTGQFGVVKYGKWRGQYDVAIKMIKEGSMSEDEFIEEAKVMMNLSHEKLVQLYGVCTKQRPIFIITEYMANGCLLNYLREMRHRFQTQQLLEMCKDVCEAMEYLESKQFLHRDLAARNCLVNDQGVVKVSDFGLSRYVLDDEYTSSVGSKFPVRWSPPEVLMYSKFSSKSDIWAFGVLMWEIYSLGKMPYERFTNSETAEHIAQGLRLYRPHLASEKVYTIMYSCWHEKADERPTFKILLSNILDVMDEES

IC50 (MV4-11 cells) [nM]	IC50 (K562 cells) [nM]	IC50 (MOLM-13 cells) [nM]	SMILES	% Inhibition (tubulin)	% D.O.P. (tubulin)	other results
			Nc1ncnc2c1c(-c1ccc(Oc3ccccc3)cc1)nn2[C@@H]1CCCN(S(=O)(=O)c2c(F)c(F)c(F)c(F)c2OCC(F)(F)F)C1 [Compound 3A-2, (R)-3-(4-phenoxyphenyl)-1-(1-((2,3,4,5-tetrafluoro-6-(2,2,2 trifluoroethoxy)phenyl)sulfonyl)piperidin-3-yl)-1H-pyrazolo[3,4-d]pyrimidin-4-amine]			IC50 (BTK [1]; Table 17): 100 to 1000 nM; inhibition profile by enzyme kinetic analysis (BTK [2]): time-dependent inhibition; kinact (BTK [2]; saturation kinetics): 0.00169 s⁻¹; Ki (BTK [2]; saturation kinetics of irreversible inhibition): 120 nM
			Nc1ncnc2c1c(-c1ccc(Oc3ccccc3)cc1)nn2[C@@H]1CCN(S(=O)(=O)c2cc(F)c(F)c(F)c2F)C1 [Compound 3A-4, 3-(4-phenoxyphenyl)-1-[(3R)-1-(2,3,4,5-tetrafluorophenyl)sulfonylpyrrolidin-3-yl]pyrazolo[3,4-d]pyrimidin-4-amine]			C481 covalent modification [3]: covalent modification and ✓
			Nc1ncnc2c1c(-c1ccc(Oc3ccccc3)cc1)nn2CCNS(=O)(=O)c1c(F)c(F)c(F)c(F)c1F [Compound 3A-9, N-[2-[4-amino-3-(4-phenoxyphenyl)pyrazolo[3,4-d]pyrimidin-1-yl]ethyl]-2,3,4,5,6-pentafluoro-benzenesulfonamide]			C481 covalent modification [3]: covalent modification and ✓; C527 covalent modification ([3]; tryptic peptide 526-536): covalent modification and ✓; IC50 (BTK [1]; Table 18): 0.1 to 10 nM
			Nc1ncnc2c1c(-c1ccc(Oc3ccccc3)cc1)nn2CCCNS(=O)(=O)c1c(F)c(F)c(F)c(F)c1F [Compound 3A-10, N-(3-(4-amino-3-(4-phenoxyphenyl)-1H-pyrazolo[3,4-d]pyrimidin-1-yl)propyl)-2,3,4,5,6-pentafluorobenzenesulfonamide]			IC50 (BTK [1]; Table 17): 0.1 to 10 nM
			Nc1ncnc2c1c(-c1ccc(Oc3ccccc3)cc1)nn2C1CN(S(=O)(=O)c2c(F)c(F)c(F)c(F)c2F)C1 [Compound 3A-24, 1-(1-((perfluorophenyl)sulfonyl)azetidin-3-yl)-3-(4-phenoxyphenyl)-1H-pyrazolo[3,4-d]pyrimidin-4-amine]			IC50 (BTK [1]; Table 17): 0.1 to 10 nM
			COCCOc1ccc(Nc2ncc(F)c(NCCNS(=O)(=O)c3c(F)c(F)c(F)c(F)c3F)n2)cc1 [Compound 3A-37, 2,3,4,5,6-pentafluoro-N-(2-((5-fluoro-2-((4-(2-methoxyethoxy)phenyl)amino)pyrimidin-4-yl)amino)ethyl)benzenesulfonamide]			C481 covalent modification [3]: covalent modification and ✓
			COCCOc1ccc(Nc2ncc(F)c(Nc3ccc(NS(=O)(=O)c4c(F)c(F)c(F)c(F)c4F)cc3)n2)cc1 [Compound 3A-38, 2,3,4,5,6-pentafluoro-N-(4-((5-fluoro-2-((4-(2-methoxyethoxy)phenyl)amino)pyrimidin-4-yl)amino)phenyl)benzenesulfonamide]			C481 covalent modification [3]: covalent modification and ✓
100 to 1000	> 10000	> 10000	COc1ccc(NS(=O)(=O)c2c(F)c(F)c(F)c(F)c2OC2COC2)cc1F [Compound I-72, 2,3,4,5-tetrafluoro-N-(3-fluoro-4-methoxyphenyl)-6-(oxetan-3-yloxy)benzenesulfonamide]	A (<10%)	A (>85%)	
100 to 1000	1000 to 10000	1000 to 10000	COc1ccc(NS(=O)(=O)c2c(F)c(F)c(F)c(F)c2OCC2COC2)cc1F [Compound I-73, 2,3,4,5-tetrafluoro-N-(3-fluoro-4-methoxyphenyl)-6-(oxetan-3-ylmethoxy)benzenesulfonamide]	A (<10%)	A (>85%)	
> 10000	> 10000	> 10000	COc1ccc(NS(=O)(=O)c2c(F)c(F)c(F)c(F)c2OCC(C)(C)C)cc1F [Compound I-74, 2,3,4,5-tetrafluoro-N-(3-fluoro-4-methoxyphenyl)-6-(neopentyloxy)benzenesulfonamide]	A (<10%)	A (>85%)	
1000 to 10000	> 10000	> 10000	COc1ccc(NS(=O)(=O)c2c(F)c(F)c(F)c(F)c2Oc2ccc(O)cc2)cc1F [Compound I-77, 2,3,4,5-tetrafluoro-N-(3-fluoro-4-methoxyphenyl)-6-(4-hydroxyphenoxy)benzenesulfonamide]	A (<10%)	A (>85%)	
1000 to 10000	1000 to 10000	1000 to 10000	COc1ccc(NS(=O)(=O)c2c(F)c(F)c(F)c(F)c2Oc2ccc(OC)c(F)c2)cc1F [Compound I-78, 2,3,4,5-tetrafluoro-6-(3-fluoro-4-methoxyphenoxy)-N-(3-fluoro-4-methoxyphenyl)benzenesulfonamide]	B (10-20%)	B (< 85%)	
1000 to 10000	> 10000	1000 to 10000	COc1ccc(Oc2c(F)c(F)c(F)c(F)c2S(=O)(=O)Nc2ccc(OC)c(F)c2)cc1 [Compound I-79, 2,3,4,5-tetrafluoro-N-(3-fluoro-4-methoxyphenyl)-6-(4-methoxyphenoxy)benzenesulfonamide]	A (<10%)	A (>85%)	
≤ 100	≤ 100	≤ 100	COc1ccc(NS(=O)(=O)c2c(F)c(F)c(F)c(F)c2OCF)cc1F [Compound I-83, 2,3,4,5-tetrafluoro-N-(3-fluoro-4-methoxyphenyl)-6-(fluoromethoxy)benzenesulfonamide]	C (>20%)	B (< 85%)	
1000 to 10000	> 10000	1000 to 10000	COc1ccc(NS(=O)(=O)c2c(F)c(F)c(F)c(F)c2C(=O)C(F)(F)F)cc1F [Compound I-90, 2,3,4,5-tetrafluoro-N-(3-fluoro-4-methoxyphenyl)-6-(2,2,2-trifluoroacetyl)benzenesulfonamide]	A (<10%)	A (>85%)	
≤ 100	≤ 100	100 to 1000	COc1ccc(NS(=O)(=O)c2cc(F)c(F)c(F)c2F)cc1F [Compound I-93, 2,3,4,5-tetrafluoro-N-(3-fluoro-4-methoxyphenyl)benzenesulfonamide]	C (>20%)	B (< 85%)	

From patent US12559454B2, “Benzenesulfonamide derivatives and uses thereof” (2692372 Ontario, Inc., priority 2019, dated 2026)
